Reference: patent US20230320967A1, “COMPOSITION, USE OF THE COMPOSITION, COSMETIC METHOD FOR MODULATING THE PRODUCTION OF SEBUM” (CHEMYUNION LTDA., priority 2020, published 2023)
Peptide text beside a SMILES is read from it.

Experiments:
[1] = system: skin oiliness (sebum) of female volunteers with mixed or oily skin; experiment: Clinical testing: face oiliness by sebum-metric index, Sebumeter SM 815; assay type: in vivo, human; conditions: 0.01% w/w in cosmetic base (BC-tripeptide), twice a day, 20 female volunteers
Description: For the clinical efficacy evaluation, the tripeptide (Glu-Val-Phe) was applied in a cosmetic base (BC) at a concentration of 0.01% (w/w) and compared to a placebo base, without active (Table 2).
The study was conducted with 20 female volunteers, between 18 and 50 years old, with mixed or oily skin, oily skin with a sebum-metric index above 100, who used the product (BC-placebo or BC-tripeptide) twice a day (morning and evening) for 28 days.
The participants were referred to the Instrumental Sector for acclimatizing for at least 20 minutes, in a room with controlled temperature and humidity (T=20±2° C. and RH=50±5%). After the acclimatizing period, sebum-metrics measurements were performed on the forehead. […]
The Sebumeter photometrically measures the increase in transparency of a special plastic strip that becomes translucent when coated with sebum. […] The strip is supported by a mirror which presses it against the skin of the region to be evaluated with a fixed pressure of 10N by means of a spring. […] The strip transparency is evaluated by a photocell present in the device where the plastic strip is inserted, and the light transmission represents the amount of sebum per area and the results are expressed in absolute values (μg sebum/cm^2). […]

SEBO662AR cell model [2] = experiment: Sebum production inhibition in SEBO662AR sebocyte model, androgen-free lipogenic medium, Bodipy lipid droplet imaging; assay type: cell-based, human; conditions: 500 micromolar, comparable to cerulenin 10 micromolar
Description: Sebocytes are cells found in the sebaceous glands and that, in the differentiation process, accumulate lipid droplets in their interior. The SEBO662AR cell model is an immortalized lineage of human sebocytes that responds to lipogenic stimuli and that can be used to select potential sebum production inhibitors.
A sebum production inhibition study was conducted in the SEBO662AR cell model cultivated in androgen-free lipogenic medium, and the formation of droplets was monitored by using Bodipy® fluorescent probes and image analysis. As an inhibition reference, cerulenin was applied at a concentration of 10 micromolar—a fatty acid synthase inhibitor which, although effective in reducing sebum production, is a very labile molecule as it has unsaturations and an epoxy group in its structure, so that its use is restricted to laboratory testing.

SEBO662AR cell model [3] = experiment: Cytotoxicity in vitro (non-cytotoxic concentration); assay type: cell-based, human; conditions: SEBO662AR study

CC(C)[C@H](NC(=O)[C@@H](N)CCC(=O)O)C(=O)N[C@@H](Cc1ccccc1)C(=O)O [SEQ ID No. 1, H-Glu-Val-Phe-OH] (H-Glu-Val-Phe-OH)
decrease of the average of the sebum-metric indices vs initial time (D0) ([1]; after 14 days): 31.54% | reduction of average oiliness vs initial time (D0) ([1]; after 28 days): 29.75% | reduction in sebum production (SEBO662AR cell model [2]): 28% | higher non-cytotoxic concentration (SEBO662AR cell model [3]): 500 µM
